Key:
Format in all cases: in vivo
[1] = system: redroot pigweed (Amaranthus retroflexus); experiment: Test G Post-Emergence Protocol; details: Amaranthus retroflexus, post-emergence, 312 h; for pest or weed control at 15.625 g/ha: 15.625 g ai/ha, evaluated after 13 days (100=total damage to plant; 0=no damage to plant), read-out: Pigweed, Redroot damage rating; for pest or weed control at 62.5 g/ha: 62.5 g ai/ha, read-out: Pigweed, Redroot damage rating (100=total damage to plant; 0=no damage to plant); for pest or weed control at 62.5 g/ha / pest or weed control at 250 g/ha: evaluated after 13 days; for pest or weed control at 250 g/ha: 250 g ai/ha, read-out: damage to plant, Pigweed, Redroot (100=total damage to plant; 0=no damage to plant)
Protocol: (§1) Seeds of corn (Zea mays), giant foxtail (Setaria faberi), barnyardgrass (Echinochloa crus-galli), ivy-leaved morning glory (Ipomoea hederacea), redroot pigweed (Amaranthus retroflexus) and velvetleaf (Abutilon theophrasti) were sown in standard soil in pots. After cultivation for 8 days under controlled conditions in a glasshouse (at 24/16° C., day/night; 14 hours light; 65% humidity), the plants were sprayed with an aqueous spray solution derived from the formulation of the technical active ingredient in acetone/water (50:50) solution containing 0.5% Tween 20 (polyoxyethylene sorbitan monolaurate, CAS RN 9005-64-5) to give a final dose of 15.625, 62.5 or 250 g/ha of test compound.
(§2) The test plants were then grown on under controlled conditions in a glasshouse (at 24/16° C., day/night; 14 hours light; 65% humidity) and watered twice daily. After 13 days the test was evaluated (100=total damage to plant; 0=no damage to plant). A dash (-) means no test result.

[2] = system: velvetleaf (Abutilon theophrasti); experiment: Test G Post-Emergence Protocol; details: Abutilon theophrasti, post-emergence, 312 h; for pest or weed control at 15.625 g/ha: 15.625 g ai/ha, evaluated after 13 days (100=total damage to plant; 0=no damage to plant), read-out: Velvetleaf damage rating; for pest or weed control at 62.5 g/ha: 62.5 g ai/ha, read-out: Velvetleaf damage rating (100=total damage to plant; 0=no damage to plant); for pest or weed control at 62.5 g/ha / pest or weed control at 250 g/ha: evaluated after 13 days; for pest or weed control at 250 g/ha: 250 g ai/ha, read-out: damage to plant, Velvetleaf (100=total damage to plant; 0=no damage to plant)
Protocol: as §1, §2

[3] = system: redroot pigweed (Amaranthus retroflexus); experiment: Test G Pre-Emergence Protocol; details: Amaranthus retroflexus, pre-emergence, 312 h, evaluated after 13 days; for pest or weed control at 15.625 g/ha: 15.625 g ai/ha; for pest or weed control at 15.625 g/ha / pest or weed control at 250 g/ha: read-out: Pigweed, Redroot damage rating (100=total damage to plant; 0=no damage to plant); for pest or weed control at 62.5 g/ha: 62.5 g ai/ha, 100=total damage to plant, 0=no damage to plant, read-out: plant damage rating, Pigweed, Redroot; for pest or weed control at 250 g/ha: 250 g ai/ha
Protocol: as §1, with “one day” for “8 days”
as §2

[4] = system: velvetleaf (Abutilon theophrasti); experiment: Test G Pre-Emergence Protocol; details: Abutilon theophrasti, pre-emergence, 312 h, evaluated after 13 days; for pest or weed control at 15.625 g/ha: 15.625 g ai/ha; for pest or weed control at 15.625 g/ha / pest or weed control at 250 g/ha: read-out: Velvetleaf damage rating (100=total damage to plant; 0=no damage to plant); for pest or weed control at 62.5 g/ha: 62.5 g ai/ha, 100=total damage to plant, 0=no damage to plant, read-out: plant damage rating, Velvetleaf; for pest or weed control at 250 g/ha: 250 g ai/ha
Protocol: as §1, with “one day” for “8 days”
as §2

[5] = system: giant foxtail (Setaria faberi); experiment: Test G Pre-Emergence Protocol; details: Setaria faberi, pre-emergence, 312 h, evaluated after 13 days; for pest or weed control at 15.625 g/ha: 15.625 g ai/ha; for pest or weed control at 15.625 g/ha / pest or weed control at 250 g/ha: read-out: Foxtail, Giant damage rating (100=total damage to plant; 0=no damage to plant); for pest or weed control at 62.5 g/ha: 62.5 g ai/ha, 100=total damage to plant, 0=no damage to plant, read-out: plant damage rating, Foxtail, Giant; for pest or weed control at 250 g/ha: 250 g ai/ha
Protocol: as §1, with “one day” for “8 days”
as §2

[6] = system: barnyardgrass (Echinochloa crus-galli); experiment: Test G Pre-Emergence Protocol; details: Echinochloa crus-galli, pre-emergence, 312 h, evaluated after 13 days; for pest or weed control at 15.625 g/ha: 15.625 g ai/ha, read-out: Barnyard grass damage rating (100=total damage to plant; 0=no damage to plant); for pest or weed control at 62.5 g/ha: 62.5 g ai/ha, 100=total damage to plant, 0=no damage to plant, read-out: plant damage rating, Barnyardgrass; for pest or weed control at 250 g/ha: 250 g ai/ha, read-out: Barnyardgrass damage rating (100=total damage to plant; 0=no damage to plant)
Protocol: as §1, with “one day” for “8 days”
as §2

[7] = system: corn (Zea mays); experiment: Test G Pre-Emergence Protocol; details: Zea mays, pre-emergence, 312 h, evaluated after 13 days; for plant injury at 15.625 g/ha: 15.625 g ai/ha; for plant injury at 15.625 g/ha / plant injury at 250 g/ha: read-out: Corn damage rating (100=total damage to plant; 0=no damage to plant); for plant injury at 62.5 g/ha: 62.5 g ai/ha, 100=total damage to plant, 0=no damage to plant, read-out: plant damage rating, Corn; for plant injury at 250 g/ha: 250 g ai/ha
Protocol: as §1, with “one day” for “8 days”
as §2

[8] = system: ivy-leaved morning glory (Ipomoea hederacea); experiment: Test G Pre-Emergence Protocol; details: Ipomoea, pre-emergence, 312 h, evaluated after 13 days; for pest or weed control at 15.625 g/ha: 15.625 g ai/ha, read-out: Morning-glory, Ivy-leaved damage rating (100=total damage to plant; 0=no damage to plant); for pest or weed control at 62.5 g/ha: 62.5 g ai/ha, 100=total damage to plant, 0=no damage to plant, read-out: plant damage rating, Morningglory, Ivy-leaved; for pest or weed control at 250 g/ha: 250 g ai/ha, read-out: Morningglory, Ivy-leaved damage rating (100=total damage to plant; 0=no damage to plant)
Protocol: as §1, with “one day” for “8 days”
as §2

[9] = system: poinsettia, wild (wild poinsettia, Euphorbia heterophylla); experiment: Test E preemergence; details: scale 0 to 100
Summary of the method: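 Seeds planted in silt loam were treated preemergence, and plants in Redi-Earth peat medium at 2 to 18 cm (1- to 4-leaf) were treated postemergence, with test chemicals in non-phytotoxic solvent with surfactant. Plants kept in greenhouse 14 to 21 d, then visually rated against controls on a 0–100 scale (0 no effect, 100 complete control).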

**Q.** What does the source list for `Cc1ccc([C@H]2CN(C)C(=O)[C@@H]2C(=O)Nc2ccc(F)nc2F)cc1` [Compound 1402]?
**A.** pest or weed control at 15.625 g/ha [1]: 10%; pest or weed control at 62.5 g/ha [1]: 60%; pest or weed control at 250 g/ha [1]: 60%; pest or weed control at 15.625 g/ha [2]: 0%; pest or weed control at 62.5 g/ha [2]: 30%; pest or weed control at 250 g/ha [2]: 50%; pest or weed control at 15.625 g/ha [3]: 0%; pest or weed control at 62.5 g/ha [3]: 80%; pest or weed control at 250 g/ha [3]: 80%; pest or weed control at 15.625 g/ha [4]: 0%; pest or weed control at 62.5 g/ha [4]: 70%; pest or weed control at 250 g/ha [4]: 80%; pest or weed control at 15.625 g/ha [5]: 90%; pest or weed control at 62.5 g/ha [5]: 90%; pest or weed control at 250 g/ha [5]: 90%; pest or weed control at 15.625 g/ha [6]: 80%; pest or weed control at 62.5 g/ha [6]: 90%; pest or weed control at 250 g/ha [6]: 90%; plant injury at 15.625 g/ha [7]: 60%; plant injury at 62.5 g/ha [7]: 80%; plant injury at 250 g/ha [7]: 90%; pest or weed control at 15.625 g/ha [8]: 40%; pest or weed control at 62.5 g/ha [8]: 70%; pest or weed control at 250 g/ha [8]: 80%

**Q.** For `Cc1ccc([C@H]2CN(C)C(=O)[C@@H]2C(=O)Nc2cccnc2F)cc1` [Compound 1398], which pest or weed control at 15.625 g/ha [1] is on record?
**A.** 0%

**Q.** What about the pest or weed control at 62.5 g/ha [1] of the same compound?
**A.** 50%

**Q.** What about the pest or weed control at 250 g/ha [1] of the same compound?
**A.** 60%

**Q.** What about the pest or weed control at 15.625 g/ha [2] of the same compound?
**A.** 0%

**Q.** What about the pest or weed control at 62.5 g/ha [2] of the same compound?
**A.** 40%

**Q.** What about the pest or weed control at 250 g/ha [2] of the same compound?
**A.** 40%

**Q.** And the pest or weed control at 15.625 g/ha [3]?
**A.** 20%

**Q.** And the pest or weed control at 62.5 g/ha [3]?
**A.** 60%

**Q.** And the pest or weed control at 250 g/ha [3]?
**A.** 80%

**Q.** What about the pest or weed control at 15.625 g/ha [4] of the same compound?
**A.** 0%

**Q.** And the pest or weed control at 62.5 g/ha [4]?
**A.** 60%

**Q.** What about the pest or weed control at 250 g/ha [4] of the same compound?
**A.** 80%

**Q.** And the pest or weed control at 15.625 g/ha [5]?
**A.** 90%

**Q.** And the pest or weed control at 62.5 g/ha [5]?
**A.** 90%

**Q.** And the pest or weed control at 250 g/ha [5]?
**A.** 90%

**Q.** What about the pest or weed control at 15.625 g/ha [6] of the same compound?
**A.** 80%

**Q.** And the pest or weed control at 62.5 g/ha [6]?
**A.** 90%

**Q.** And the pest or weed control at 250 g/ha [6]?
**A.** 90%

**Q.** What about the plant injury at 15.625 g/ha [7] of the same compound?
**A.** 20%

**Q.** And the plant injury at 62.5 g/ha [7]?
**A.** 80%

**Q.** And the plant injury at 250 g/ha [7]?
**A.** 90%

**Q.** What about the pest or weed control at 15.625 g/ha [8] of the same compound?
**A.** 0%

**Q.** And the pest or weed control at 62.5 g/ha [8]?
**A.** 60%

**Q.** And the pest or weed control at 250 g/ha [8]?
**A.** 80%

**Q.** `CN1CC(c2ccc(C(F)(F)F)cc2)C(C(=O)Nc2ccccc2S(C)(=O)=O)C1=O` (centres unmarked) [Compound 624] was tested. Which “Plant response rating: Poinsettia, Wild” value ([9]; 31 g ai/ha) did it give?
**A.** 20

**Q.** And the “Plant response rating: Poinsettia, Wild” value ([9]; 62 g ai/ha)?
**A.** 20

**Q.** What about the “Plant response rating: Poinsettia, Wild” value ([9]; 125 g ai/ha) of the same compound?
**A.** 30

**Q.** And the “Plant response rating: Poinsettia, Wild” value ([9]; 250 g ai/ha)?
**A.** 40

**Q.** Which “Plant response rating: Poinsettia, Wild” value ([9]; 31 g ai/ha) does the source give for `CN1CC(c2cccc(C(F)(F)F)c2)C(C(=O)Nc2ccccc2S(C)(=O)=O)C1=O` (centres unmarked) [Compound 637] here?
**A.** 0

**Q.** What about the “Plant response rating: Poinsettia, Wild” value ([9]; 62 g ai/ha) of the same compound?
**A.** 0

**Q.** And the “Plant response rating: Poinsettia, Wild” value ([9]; 125 g ai/ha)?
**A.** 20

**Q.** What about the “Plant response rating: Poinsettia, Wild” value ([9]; 250 g ai/ha) of the same compound?
**A.** 25
